Reference: patent US9340524B2, “Androgen receptor modulator and uses thereof” (Aragon Pharmaceuticals, Inc., priority 2013, dated 2016)

What was measured:
MDA MB 453 cells = assay: MDA MB 453 breast cancer xenograft assay; assay type: in vivo, female SCID Hairless Outbred (SHO) mice; conditions: 30 mg/kg/day, daily for 28 days
Description: Time release pellets (12.5 mg 5α-Dihydrotestosterone/60 days) were subcutaneously implanted into female SCID Hairless Outbred (SHO) mice. MDA MB 453 cells were grown in RPMI containing 10% FBS, 10 μg/ml insulin, 10 mM Sodium Pyruvate, 10 mM Non-Essential Amino Acids at 5% CO2, 37° C. Cells were spun down and re-suspended in 50% RPMI (serum free) and 50% Matrigel (BD, high concentration containing phenol red) at 1×10^7 cells/ml. MDA MB 453 cells were subcutaneously injected (100 μl/animal) on the right flank 2-3 days post pellet implantation. Tumor volume (length×width^2/2) was monitored bi-weekly. When tumors reached an average volume of ˜350 mm^3, animals were randomized and treatment was started. […] Tumor volume and body weight were monitored bi-weekly throughout the study. At the conclusion of the treatment period; plasma and tumor samples were taken for pharmacokinetic and pharmacodynamic analyses, respectively.

non-metastatic CRPC = assay: Phase II clinical trial, non-metastatic CRPC; assay type: in vivo, human; conditions: 240 mg/day
From the text: (§1) The primary objective was to assess antitumor activity and PSA kinetics as defined by the Prostate Cancer Clinical Trials Working Group (PCWG2) criteria. […] The median time to PSA progression was not reached for the TN cohort during the preliminary 12-week period, and was 16 weeks in the PA cohort.
The median time to PSA progression was not reached in this observed time period.

[1] = tested on: PTEN KO model of prostate cancer; assay: PTEN KO genetically engineered mouse model of prostate cancer; assay type: in vivo, mice; conditions: for Efficacy: combined androgen blockade (castration + anti-androgen)
Description: Ptenlox/lox; PB-Cre mice (age 6-8 months) are imaged by small animal MRI imaging core prior to and at the completion of treatment. All mice are castrated. Surgical castration is performed under anesthesia with isoflurane. Mice are monitored postoperatively for recovery.
Mice are administered control vehicle or test article by oral gavage daily Monday through Friday schedule for a total of 35 days. MRI tumor volumes are reported for each mouse at time point zero (T0) at initiation of study and time point 35 days (T35) at completion of study. Changes in tumor volumes between T0 and T35 are calculated for individual mice and reported in waterfall plots. At study end, mice were euthanized by CO2 asphyxiation, and tissue was collected for histology, mRNA analysis, protein analysis and other analyses.

LNCaP/AR cells = assay: LNCaP/AR model for castrate resistant prostate cancer xenograft studies; assay type: in vivo, male SCID Hairless Outbred mice; conditions: for Efficacy on LNCaP/AR tumors: monotherapy at or near maximally efficacious dose
Description: In some embodiments, overexpression of wild type androgen receptor 3-5 fold in the LNCaP (LNCaP/AR) cell line confers a castration resistant phenotype both in vitro and in vivo.
Six to Seven week old male SCID Hairless Outbred mice (SHO, Charles Rivers Laboratories) underwent bilateral orchiectomy under isoflurane anesthesia. LNCaP/AR cells were grown in RPMI at 5% CO2, 37° C. Cells were spun down and re-suspended in 50% serum-free RPMI and 50% Matrigel at 1×10^7 cells/ml. LNCaP/AR cells were subcutaneously injected (100 μl/animal) on the right flank 3-5 days post castration. Tumor volume (length×width^2/2) was monitored weekly. When tumors reached an average volume of ˜200 mm^3 animals were randomized into treatment groups. During the treatment period tumor volume was monitored bi-weekly. At the termination of the study, tumors were collected and stored for further analyses. All compounds were administered daily by oral gavage. Statistical analyses were performed using Graphpad Prism.

[2] = tested on: non-castrate hormone-sensitive and bicalutamide-resistant human prostate cancer xenograft models; conditions: in vivo; cited from earlier work
metastatic CRPC = assay: Phase II clinical trial, metastatic CRPC (treatment-naïve and post-abiraterone acetate cohorts); assay type: in vivo, human; conditions: for Patients with 12-week PSA decline of ≧50% from baseline: preliminary
From the text: as §1

T877A AR mutant = target: T1, T877A AR mutant (Homo sapiens, UniProt P10275, T878A); conditions: cited from earlier work
T1 sequence (P10275 1-920 T878A): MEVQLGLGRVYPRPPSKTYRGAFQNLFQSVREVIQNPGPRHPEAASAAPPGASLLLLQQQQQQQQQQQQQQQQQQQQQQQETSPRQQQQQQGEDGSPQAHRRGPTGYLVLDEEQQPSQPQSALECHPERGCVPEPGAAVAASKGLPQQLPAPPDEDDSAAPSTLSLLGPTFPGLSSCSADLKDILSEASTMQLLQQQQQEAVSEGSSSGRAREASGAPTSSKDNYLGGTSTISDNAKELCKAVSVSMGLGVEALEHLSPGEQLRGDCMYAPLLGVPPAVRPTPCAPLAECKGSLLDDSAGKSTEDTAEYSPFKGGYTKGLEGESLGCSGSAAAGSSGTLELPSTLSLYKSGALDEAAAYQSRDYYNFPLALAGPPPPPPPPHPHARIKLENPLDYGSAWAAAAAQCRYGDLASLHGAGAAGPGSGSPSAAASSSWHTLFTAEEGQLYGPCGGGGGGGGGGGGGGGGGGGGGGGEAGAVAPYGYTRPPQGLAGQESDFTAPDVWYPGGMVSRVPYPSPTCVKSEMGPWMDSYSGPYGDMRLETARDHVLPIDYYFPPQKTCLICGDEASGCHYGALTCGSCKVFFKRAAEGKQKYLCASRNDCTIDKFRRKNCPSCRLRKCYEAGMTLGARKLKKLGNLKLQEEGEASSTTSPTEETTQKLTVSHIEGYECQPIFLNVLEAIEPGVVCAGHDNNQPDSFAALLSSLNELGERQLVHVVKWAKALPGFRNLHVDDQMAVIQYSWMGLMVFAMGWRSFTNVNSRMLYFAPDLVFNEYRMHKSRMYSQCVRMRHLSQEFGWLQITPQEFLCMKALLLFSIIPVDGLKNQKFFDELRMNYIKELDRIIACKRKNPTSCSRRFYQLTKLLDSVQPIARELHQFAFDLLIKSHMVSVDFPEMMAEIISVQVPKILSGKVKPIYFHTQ

In the case of `CNC(=O)c1ccc(N2C(=S)N(c3cnc(C#N)c(C(F)(F)F)c3)C(=O)C23CCC3)cc1F` [4-[7-(6-cyano-5-trifluoromethylpyridin-3-yl)-8-oxo-6-thioxo-5,7-diazaspiro[3.4]oct-5-yl]-2-fluoro-N-methylbenzamide], the “Number of Tumor Regressions” value (MDA MB 453 cells; +DHT) is reported as 9/9, the “Number of Tumor Regressions” value (MDA MB 453 cells; −DHT) is reported as 5/10 and the “Patients with ≧50% decline in PSA as compared to baseline” value (non-metastatic CRPC; 12 weeks of treatment) is reported as 91%. For the same compound, the “Patients with ≧50% decline in PSA” value (non-metastatic CRPC; 24 weeks) was 91%, the “Patients with ≧90% decline in PSA” value (non-metastatic CRPC; 24 weeks) was 55% and the “Median time to PSA progression” value (non-metastatic CRPC; observed time period) was “not reached”. For the same compound, the Efficacy [1] was “minimal efficacy”, the “Mean tumor response of LNCaP/AR tumors” value (LNCaP/AR cells; 1 mg/kg/day) was “tumor stasis” and the “Tumor response of LNCaP/AR tumors” value (LNCaP/AR cells; 10-30 mg/kg/day) was “nearly full regression of all treated LNCaP/AR tumors”. The “Number of regressions > 50%” value (LNCaP/AR cells; Table 4, 3 mg/kg/day alone, oral gavage daily) was 2/10, the “Number of regressions > 50%” value (LNCaP/AR cells; Table 5, 3 mg/kg/day alone, oral gavage daily) was 1/10 and the Tumor response [2] was “partial or complete tumor regression”. For the same compound, the Tolerability (metastatic CRPC; 240 mg oral, continuous daily dosing, NM-CRPC, TN mCRPC and post-abiraterone mCRPC) was “very well tolerated”, the “Patients with 12-week PSA decline of ≧50% from baseline” value (metastatic CRPC; PA cohort, 240 mg oral, continuous daily dosing) was 29% and the “Median time to PSA progression” value (metastatic CRPC; PA cohort, 240 mg/day) was 16 weeks. For the same compound, the “Patients with 12-week PSA decline of ≧50% from baseline” value (metastatic CRPC; TN cohort, 240 mg oral, continuous daily dosing) was 88%, the “Median time to PSA progression” value (metastatic CRPC; TN cohort, preliminary 12-week period, 240 mg/day) was “not reached” and the “Objective response rate (by RECIST)” value (metastatic CRPC; TN patients with measurable disease at baseline, 240 mg/day) was 63%.

In the case of `Cn1c(=O)n(-c2ccc(C(C)(C)C#N)cc2)c2c3cc(-c4cnc5ccccc5c4)ccc3ncc21` [BEZ-235], the Anti-tumor activity ([1]; monotherapy) is reported as “minimal anti-tumor activity”.

With `Nc1cc(C(F)(F)F)c(-c2cc(N3CCOCC3)nc(N3CCOCC3)n2)cn1` [BKM120, 5-(2,6-dimorpholinopyrimidin-4-yl)-4-(trifluoromethyl)pyridin-2-amine] the “Number of regressions > 50%” value (LNCaP/AR cells; Table 4, BKM120 20 mg/kg alone) was 1/10, the “Number of regressions > 50%” value (LNCaP/AR cells; Table 4, BKM120 40 mg/kg alone) was 0/9 and the “Efficacy on LNCaP/AR tumors” value (LNCaP/AR cells) was “a range of efficacy from tumor growth inhibition to tumor stasis”.

In the case of `CO[C@H]1C[C@@H]2CC[C@@H](C)[C@@](O)(O2)C(=O)C(=O)N2CCCC[C@H]2C(=O)O[C@H]([C@H](C)C[C@@H]2CC[C@@H](OCCO)[C@H](OC)C2)CC(=O)[C@H](C)/C=C(\C)[C@@H](O)[C@@H](OC)C(=O)[C@H](C)C[C@H](C)/C=C/C=C/C=C/1C` [Everolimus], the “Number of regressions > 50%” value (LNCaP/AR cells; Table 5, Everolimus 5 mg/kg/day alone) is reported as 0/8, the “Number of regressions > 50%” value (LNCaP/AR cells; Table 5, Everolimus 10 mg/kg/day alone) is reported as 2/10 and the “Efficacy on LNCaP/AR tumors” value (LNCaP/AR cells) is reported as “a range of efficacy from tumor growth inhibition to tumor stasis”.

For `CNC(=O)c1ccc(N2C(=S)N(c3ccc(C#N)c(C(F)(F)F)c3)C(=O)C2(C)C)cc1F` [MDV3100, 4-(3-(4-cyano-3-(trifluoromethyl)phenyl)-5,5-dimethyl-4-oxo-2-thioxoimidazolidin-1-yl)-2-fluoro-N-methylbenzamide], the Efficacy [1] was “minimal efficacy”.

For `COc1ccc(Cl)c(Nc2nc3ccccc3nc2NS(=O)(=O)c2cccc(NC(=O)C(C)(C)N)c2)c1` [SAR245408], the “Efficacy on LNCaP/AR tumors” value (LNCaP/AR cells) was “a range of efficacy from tumor growth inhibition to tumor stasis”.

For `CC(C)(O)C(=O)Nc1ccc([N+](=O)[O-])c(C(F)(F)F)c1` [hydroxyflutamide], the Agonist activity (T877A AR mutant) is given as “act as AR agonists”.
